As a reminder, the IC50 is the concentration needed to halve the response being measured. Read a high IC50 as weaker potency. As usually defined, the CC50 is the concentration that lowers cell viability or growth by half.

Where a name gives a salt, the structure may show the parent alone.

Among the data in patent US12544359B2, “1-aminosulfonyl-2-carboxypyrrole derivatives as metallo-beta-lactamase inhibitors” (INFEX Therapeutics Limited, priority 2019, dated 2026) are IC50 and CC50 values, retold here.

In data set [1] the target is NDM-1 (Klebsiella pneumoniae, UniProt C7C422). The data set can be described thus: metallo-β-lactamase inhibition assay (nitrocefin). Particulars: 1.5 nM NDM-1, 100 μM nitrocefin, 37° C., pH 7.5. The class given is biochemical. Here is the method: Compounds of the invention were tested in a metallo-β-lactamase inhibition assay to investigate mechanism of action of the compounds. Results are reported as the concentration of test article required to inhibit enzyme activity by 50% (IC50).
Inhibition of metallo-β-lactamase enzyme function was performed at 37° C. in buffer at pH 7.5 (50 mM HEPES, 150 mM NaCl, 0.1 mM ZnSO4, 20 μg/mL PEG4000), containing 1.5 nM NDM-1, 100 μM nitrocefin, and a range of concentrations of compound. Absorbance at 490 nm was measured using a BMG LABTECH FLUOstar Omega microplate reader every minute for 30 minutes. IC50s were determined from the average increase in OD per minute versus the Log 10 concentration of compound using GraphPad Prism.

A short description of data set [2]: Cytotoxicity Assay (CellTiter-Glo). The class given is cell-based. Particulars: human, Hep G2 cells (ATCC HB-8065); 24 h exposure; read-out: HepG2 CC50. The protocol: Cytotoxicity was evaluated in human Hep G2 cells (ATCC HB-8065) seeded at a density of 2×10^5 cells per well and incubated for 24 h at 37° C., 5% CO2. Cells were exposed to a doubling dilution series of test article. After 24 h exposure, the viability of the cells was determined using CellTiter-Glo® (Promega, WI, USA) according to the manufacturer's instructions. Results are reported as the concentration of test article required to reduce cell viability by 50% (CC50).
In general terms: In ATP-based viability assays light output follows the ATP content of the culture.

Sequence of NDM-1 (C7C422 whole entry, looked up, species assumed): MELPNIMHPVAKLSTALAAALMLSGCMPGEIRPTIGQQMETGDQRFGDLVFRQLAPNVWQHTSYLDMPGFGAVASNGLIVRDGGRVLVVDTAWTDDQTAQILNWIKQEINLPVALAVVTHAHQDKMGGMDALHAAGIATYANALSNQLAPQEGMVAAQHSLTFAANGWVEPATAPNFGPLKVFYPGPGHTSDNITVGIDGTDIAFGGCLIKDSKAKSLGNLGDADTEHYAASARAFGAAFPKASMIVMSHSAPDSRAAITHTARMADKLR

`NCC1CCN(C(=O)c2ccc(-c3ccn(S(N)(=O)=O)c3C(=O)O)cc2)CC1` [Example 44, 3-[4-[4-(Aminomethyl)piperidine-1-carbonyl]phenyl]-1-sulfamoyl-pyrrole-2-carboxylic acid] returned an IC50 in data set [1] of 0.187 µM. In addition, the CC50 at 24 h in data set [2] is greater than 256 µg/mL.

`NC(=O)CNC(=O)c1ccc(-c2ccn(S(N)(=O)=O)c2C(=O)O)cc1` [Example 8, 3-[4-[(2-Amino-2-oxo-ethyl)carbamoyl]phenyl]-1-sulfamoyl-pyrrole-2-carboxylic acid]: the IC50 in data set [1] came out at 0.405 µM. In data set [2], the CC50 at 24 h was greater than 128 µg/mL.

With `CN(C)CCNC(=O)c1ccc(-c2ccn(S(N)(=O)=O)c2C(=O)O)cc1` [Example 9, 3-[4-[2-(Dimethylamino)ethylcarbamoyl]phenyl]-1-sulfamoyl-pyrrole-2-carboxylic acid], in data set [1], half-maximal inhibition (IC50) was put at 0.373 µM. Further, the CC50 at 24 h in data set [2] was greater than 256 µg/mL.

`NCCN1CCC(c2ccn(S(N)(=O)=O)c2C(=O)O)CC1` [Example 85, 3-[1-(2-Aminoethyl)-4-piperidyl]-1-sulfamoyl-pyrrole-2-carboxylic acid] returned an IC50 in data set [1] of 0.399 µM. In data set [2], the CC50 at 24 h was greater than 128 µg/mL.

Molecule `N#CCNC(=O)c1ccc(-c2ccn(S(N)(=O)=O)c2C(=O)O)cc1` [Example 6, 3-[4-(Cyanomethyl-carbamoyl)phenyl]-1-sulfamoyl-pyrrole-2-carboxylic acid] gave a half-inhibitory concentration (IC50) in data set [1] of 0.843 µM. Moreover, in data set [2], the CC50 at 24 h is greater than 256 µg/mL.

With `NS(=O)(=O)n1ccc(CC2CCNCC2)c1C(=O)O` [Example 57, 3-(4-Piperidylmethyl)-1-sulfamoyl-pyrrole-2-carboxylic acid hydrochloride], the CC50 at 24 h in data set [2] is greater than 256 µg/mL.

For the molecule `NS(=O)(=O)n1ccc(-c2ccc(C(=O)N[C@H]3[C@@H]4CNC[C@@H]43)cc2)c1C(=O)O` [Example 43, 3-[4-[[(1S,5R)-3-Azabicyclo[3.1.0]hexan-6-yl]carbamoyl]phenyl]-1-sulfamoyl-pyrrole-2-carboxylic acid], in data set [1], the midpoint of inhibition, the IC50, lay at 0.273 µM. Also, in data set [2], the CC50 at 24 h is greater than 256 µg/mL.

With `NS(=O)(=O)n1ccc(-c2ccc(C(=O)NC3CCNCC3)cc2)c1C(=O)O` [Example 36, 3-[4-(4-Piperidylcarbamoyl)phenyl]-1-sulfamoyl-pyrrole-2-carboxylic acid hydrochloride], it took 0.41 µM to reach half-maximal inhibition in data set [1] (IC50). In data set [2], the CC50 at 24 h was greater than 256 µg/mL.

In turn, `NCCC(=O)Nc1ccc(-c2ccn(S(N)(=O)=O)c2C(=O)O)cn1` [Example 94, 3-[6-(3-Aminopropanoylamino)-3-pyridyl]-1-sulfamoyl-pyrrole-2-carboxylic acid, sodium salt] came in with an IC50 in data set [1] of 2.49 µM. In addition, the CC50 at 24 h in data set [2] is greater than 256 µg/mL.

For `CC(=O)N1CCC(Cc2ccn(S(N)(=O)=O)c2C(=O)O)CC1` [Example 62, 3-[(1-Acetyl-4-piperidyl)methyl]-1-sulfamoyl-pyrrole-2-carboxylic acid], the CC50 at 24 h in data set [2] is greater than 256 µg/mL.

As for `NS(=O)(=O)n1ccc(-c2ccc(C(=O)NCCN3CCNC3=O)cc2)c1C(=O)O` [Example 17, 3-[4-[2-(2-Oxoimidazolidin-1-yl)ethylcarbamoyl]phenyl]-1-sulfamoyl-pyrrole-2-carboxylic acid, ammonium salt], the IC50 in data set [1] was determined as 0.394 µM. Moreover, the cytotoxic concentration (CC50) at 24 h in data set [2] is greater than 256 µg/mL.

The molecule `CN(C)C(=O)c1ccc(-c2ccn(S(N)(=O)=O)c2C(=O)O)cc1` [Example 2, 3-[4-(Dimethylcarbamoyl)phenyl]-1-sulfamoyl-pyrrole-2-carboxylic acid] returned an IC50 in data set [1] of 0.111 µM. Moreover, the CC50 at 24 h in data set [2] was greater than 256 µg/mL.

In the case of `NS(=O)(=O)n1ccc(-c2ccc(C(=O)NC3CNC3)cc2)c1C(=O)O` [Example 35, 3-[4-(Azetidin-3-ylcarbamoyl)phenyl]-1-sulfamoyl-pyrrole-2-carboxylic acid], in data set [1], the IC50 came out at 0.2 µM. Further, the CC50 at 24 h in data set [2] is greater than 256 µg/mL.

For `NC1CN(C(=O)c2ccc(-c3ccn(S(N)(=O)=O)c3C(=O)O)cc2)C1` [Example 21, 3-[4-(3-Aminoazetidine-1-carbonyl)phenyl]-1-sulfamoyl-pyrrole-2-carboxylic acid], the IC50 in data set [1] was 0.078 µM. Also, the CC50 at 24 h in data set [2] was greater than 256 µg/mL.

`NS(=O)(=O)n1ccc(-c2ccc(C(=O)N3CCNCC3)cc2)c1C(=O)O` [Example 27, 3-[4-(Piperazine-1-carbonyl)phenyl]-1-sulfamoyl-pyrrole-2-carboxylic acid] came in with an IC50 in data set [1] of 0.131 µM. Further, the CC50 at 24 h in data set [2] was greater than 256 µg/mL.

Consider `NC1CN(C(=O)c2cccc(-c3ccn(S(N)(=O)=O)c3C(=O)O)c2)C1` [Example 31, 3-[3-(3-Aminoazetidine-1-carbonyl)phenyl]-1-sulfamoyl-pyrrole-2-carboxylic acid], for which the concentration for half-maximal inhibition (IC50) in data set [1] came to 3.33 µM. For the same molecule, in data set [2], the CC50 at 24 h was greater than 256 µg/mL.

Consider `NS(=O)(=O)n1ccc(-c2ccc(C(=O)NCCCO)cc2)c1C(=O)O` [Example 11, 3-[4-(3-Hydroxypropyl-carbamoyl)phenyl]-1-sulfamoyl-pyrrole-2-carboxylic acid], for which inhibition in data set [1] was half-maximal at 0.527 µM (IC50). Further, the cytotoxic concentration (CC50) at 24 h in data set [2] is greater than 256 µg/mL.

`NS(=O)(=O)n1ccc(-c2ccc(C(=O)NCCN3CCOCC3)cc2)c1C(=O)O` [Example 15, 3-[4-(2-Morpholinoethyl-carbamoyl)phenyl]-1-sulfamoyl-pyrrole-2-carboxylic acid]: 1.79 µM corresponded to half-maximal inhibition in data set [1] (IC50). For the same molecule, the 50% cytotoxic concentration (CC50) at 24 h in data set [2] was greater than 256 µg/mL.

As for `NS(=O)(=O)n1ccc(-c2ccc(C(=O)NCCCOS(=O)(=O)O)cc2)c1C(=O)O` [Example 54, 1-Sulfamoyl-3-[4-(3-sulfooxypropylcarbamoyl)phenyl]pyrrole-2-carboxylic acid], in data set [2], the CC50 at 24 h is greater than 256 µg/mL.

In turn, `NS(=O)(=O)n1ccc(-c2ccc(C(=O)N[C@@H]3CCNC[C@H]3O)cc2)c1C(=O)O` [Example 38, 3-[4-[[(3R,4R)-3-Hydroxy-4-piperidyl]carbamoyl]phenyl]-1-sulfamoyl-pyrrole-2-carboxylic acid] displayed a 50% inhibitory concentration (IC50) in data set [1] of 0.652 µM. Also, the CC50 at 24 h in data set [2] is greater than 256 µg/mL.

In data set [1], `NS(=O)(=O)n1ccc(-c2ccc(C(=O)NC(CO)CO)cc2)c1C(=O)O` [Example 12, 3-[4-[[2-Hydroxy-1-(hydroxymethyl)ethyl]carbamoyl]phenyl]-1-sulfamoyl-pyrrole-2-carboxylic acid] registered an IC50 of 1.06 µM. The CC50 at 24 h in data set [2] is greater than 128 µg/mL.

`NCC(=O)N1CCCC(c2ccn(S(N)(=O)=O)c2C(=O)O)C1` (stereo not shown) [Example 63, 3-[1-(2-Aminoacetyl)-3-piperidyl]-1-sulfamoyl-pyrrole-2-carboxylic acid] yielded an IC50 in data set [1] of 1.76 µM. The 50% cytotoxic concentration (CC50) at 24 h in data set [2] was greater than 256 µg/mL.

In data set [1], `NS(=O)(=O)n1ccc(-c2ccc(C(=O)NC[C@@H](O)CO)cc2)c1C(=O)O` [Example 13, 3-[4-[[(2R)-2,3-Dihydroxypropyl]carbamoyl]phenyl]-1-sulfamoyl-pyrrole-2-carboxylic acid] yielded an IC50 of 0.566 µM. Also, the CC50 at 24 h in data set [2] was greater than 256 µg/mL.

In turn, `NS(=O)(=O)n1ccc(C2CCN(C(=O)[C@@H]3CCCN3)CC2)c1C(=O)O` [Example 73, 3-[1-[(2S)-Pyrrolidine-2 carbonyl]-4-piperidyl]-1-sulfamoyl-pyirole-2-carboxylic acid] had a half-inhibitory concentration (IC50) in data set [1] of 0.568 µM. In addition, the CC50 at 24 h in data set [2] was greater than 256 µg/mL.

On to `N=C(N)NCC(=O)N1CCC(c2ccn(S(N)(=O)=O)c2C(=O)O)CC1` [Example 83, 3-[1-(2-Guanidinoacetyl)-4-piperidyl]-1-sulfamoyl-pyrrole-2-carboxylic acid], for which, in data set [2], the CC50 at 24 h is greater than 256 µg/mL.

For `NCCNC(=O)c1cccc(-c2ccn(S(N)(=O)=O)c2C(=O)O)c1` [Example 47, 3-[3-(2-Aminoethylcarbamoyl)phenyl]-1-sulfamoyl-pyrrole-2-carboxylic acid hydrochloride], it took 0.163 µM to reach half-maximal inhibition in data set [1] (IC50). Moreover, the CC50 at 24 h in data set [2] is greater than 256 µg/mL.

On to `CC(=O)N1CCC(c2ccn(S(N)(=O)=O)c2C(=O)O)C1` (stereo not shown) [Example 59, 3-[1-Acetylpyrrolidin-3-yl]-1-sulfamoyl-pyrrole-2-carboxylic acid], for which the IC50 in data set [1] stood at 1.61 µM. Besides, the cytotoxic concentration (CC50) at 24 h in data set [2] is greater than 256 µg/mL.

`CNC(=O)c1cccc(-c2ccn(S(N)(=O)=O)c2C(=O)O)c1` [Example 1, 3-[3-(Methylcarbamoyl)phenyl]-1-sulfamoyl-pyrrole-2-carboxylic acid] returned an IC50 in data set [1] of 0.223 µM. Further, the half-maximal cytotoxic concentration (CC50) at 24 h in data set [2] was greater than 256 µg/mL.

Take `N[C@@H](CO)C(=O)N1CCC(c2ccn(S(N)(=O)=O)c2C(=O)O)CC1` [Example 72, 3-[1-[(2S)-2-Amino-3-hydroxy-propanoyl]-4-piperidyl]-1-sulfamoyl-pyrrole-2-carboxylic acid]: the IC50 in data set [1] stood at 1.57 µM. Further, the 50% cytotoxic concentration (CC50) at 24 h in data set [2] was greater than 256 µg/mL.

In data set [1], `CC(=O)NCCNC(=O)c1ccc(-c2ccn(S(N)(=O)=O)c2C(=O)O)cc1` [Example 10, 3-[4-(2-Acetamidoethyl-carbamoyl)phenyl]-1-sulfamoyl-pyrrole-2-carboxylic acid] registered a 50% inhibitory concentration (IC50) of 0.374 µM. Besides, the CC50 at 24 h in data set [2] is greater than 256 µg/mL.

As for `CC(=O)N1CCCC(c2ccn(S(N)(=O)=O)c2C(=O)O)C1` (stereo not shown) [Example 58, 3-[1-Acetyl-3-piperidyl]-1-sulfamoyl-pyrrole-2-carboxylic acid], the IC50 in data set [1] was 0.433 µM.

Take `NS(=O)(=O)n1ccc(-c2ccc(C(=O)NC3CC3)cc2)c1C(=O)O` [Example 3, 3-[4-(Cyclopropyl-carbamoyl)phenyl]-1-sulfamoyl-pyrrole-2-carboxylic acid]: the CC50 at 24 h in data set [2] was greater than 256 µg/mL.
